Consider eleven molecules from ChEMBL document CHEMBL1201862, “PubChem BioAssay data set” (2004).

Among the test systems are A549; MOLT-4; SNB-19; M14; NCI/ADR-RES; PC-3; K562; SK-MEL-2; OVCAR-3; NCI-H226; HT-29; HCT-116; EKVX; MCF7; MDA-MB-435; LOX IMVI; IGROV-1; CAKI-1; OVCAR-5; BT-549.
Holding throughout (experiment): NCI tumour cell line growth inhibition, 48 h

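All cell lines were grown in 96-well plates and treated with compound for 48 hours. The concentration for 50% growth inhibition is given as GI50.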 The source made the active and inactive calls. No stated cut-off is given here; in the data, active = GI50 up to about 1.1 µM and inactive = higher. Where only a bound is given, the exact number is not on record here.

Consider `CC#CC(O)(C(=O)OC1CCCN(C)C1)C1=CC=CCC1` (configuration not stated), for which the GI50 was > 100 µM (inactive) in the assay on A549; > 100 µM (inactive) in the assay with MOLT-4; > 100 µM (inactive) in the assay on SNB-19; > 100 µM (inactive) in the assay on M14; 0.49 µM (active) with NCI/ADR-RES; > 100 µM (inactive) in the assay with PC-3. The GI50 in the assay on K562, in the assay with SK-MEL-2, in the assay with OVCAR-3, with NCI-H226, in the assay with HT-29 and in the assay on HCT-116 was > 100 µM (inactive) throughout. For the same molecule, the GI50 in the assay on EKVX, with MCF7, in the assay with MDA-MB-435, in the assay on LOX IMVI, in the assay on IGROV-1 and in the assay with CAKI-1 was > 100 µM (inactive) each time. In the assay on OVCAR-5, the GI50 is > 100 µM (inactive).
On to `CC(=O)Nc1ccc(S(=O)(=O)/N=c2/sc(S(N)(=O)=O)nn2C)cc1`, for which the GI50 with A549, in the assay on MOLT-4, in the assay on SNB-19, in the assay with M14, in the assay on NCI/ADR-RES and with PC-3 was > 100 µM (inactive) throughout. The GI50 with SK-MEL-2, in the assay on OVCAR-3, in the assay with NCI-H226, in the assay on HT-29, in the assay on HCT-116 and in the assay with EKVX was > 100 µM (inactive) each time. The GI50 in the assay with MDA-MB-435, in the assay on CAKI-1, in the assay with OVCAR-5 and with BT-549 was > 100 µM (inactive) each time.
For the molecule `Cc1cccc(C)c1NC(=O)C(C#N)C1=C(Cl)C(=O)c2ccccc2C1=O` (configuration not stated), the GI50 was 19.7 µM (inactive) with A549; 1.93 µM (inactive) with MOLT-4; 16 µM (inactive) with SNB-19; 10.1 µM (inactive) in the assay on M14; 13.8 µM (inactive) with PC-3; 2.77 µM (inactive) in the assay with K562. Moreover, the GI50 in the assay with SK-MEL-2 is 14.4 µM (inactive); in the assay with OVCAR-3, 11.3 µM (inactive); in the assay on NCI-H226 it was 12.1 µM (inactive); with HT-29, 18.6 µM (inactive); with HCT-116, 15.4 µM (inactive); with EKVX it was 21.4 µM (inactive). In addition, the GI50 in the assay with MCF7 was 20 µM (inactive); with MDA-MB-435, 17.2 µM (inactive); in the assay on LOX IMVI, 9.33 µM (inactive); in the assay on IGROV-1, 17 µM (inactive); with CAKI-1, 18.5 µM (inactive); with OVCAR-5 it was 19.3 µM (inactive). Also, the GI50 in the assay with BT-549 is 14.6 µM (inactive).
For `N#Cc1[nH]c(=O)n(-c2ccc([N+](=O)[O-])cc2)c1N`, the GI50 in the assay on A549, in the assay with MOLT-4, with SNB-19, with M14, in the assay with NCI/ADR-RES and in the assay with PC-3 was > 10 µM (inactive) throughout. Besides, the GI50 with K562, in the assay on SK-MEL-2, with OVCAR-3, in the assay with NCI-H226, in the assay on HT-29 and in the assay with HCT-116 was > 10 µM (inactive) in each case. The GI50 with EKVX, in the assay on MDA-MB-435, in the assay on LOX IMVI, in the assay with IGROV-1 and with OVCAR-5 was > 10 µM (inactive) in each case.
Take `Cc1ccc2c(c1)NC(=O)CCSSCCC(=O)N2`: the GI50 with A549, in the assay on MOLT-4, with SNB-19, in the assay with M14, in the assay with NCI/ADR-RES and with PC-3 was > 100 µM (inactive) in each case. Besides, the GI50 with K562, in the assay on SK-MEL-2, in the assay on OVCAR-3, in the assay with NCI-H226, in the assay on HT-29 and with HCT-116 was > 100 µM (inactive) in each case. Further, the GI50 in the assay on EKVX, in the assay with MDA-MB-435, with LOX IMVI, in the assay on IGROV-1, in the assay with CAKI-1 and with OVCAR-5 was > 100 µM (inactive) each time. Besides, the GI50 in the assay with BT-549 was > 100 µM (inactive).
In the case of `CC1=NN(c2nc(N)nc(C/C(N)=N/O)n2)C(C)(C)C1`, the GI50 with A549, in the assay with MOLT-4, with SNB-19, with M14, with NCI/ADR-RES and in the assay with K562 was > 100 µM (inactive) throughout. The GI50 in the assay on OVCAR-3, in the assay on NCI-H226, with HT-29, with HCT-116, with EKVX and in the assay on MCF7 was > 100 µM (inactive) throughout. Moreover, the GI50 in the assay on MDA-MB-435, with LOX IMVI, in the assay on IGROV-1, with CAKI-1, in the assay on OVCAR-5 and with BT-549 was > 100 µM (inactive) in each case.
As to `CC1Nc2ccccc2NC1C=C(C#N)C#N` (configuration not stated), the GI50 was 22.8 µM (inactive) with A549; 5.96 µM (inactive) in the assay on MOLT-4; 17.9 µM (inactive) in the assay on SNB-19; 11.9 µM (inactive) with M14; 8.32 µM (inactive) with K562; 21.3 µM (inactive) with SK-MEL-2. The GI50 with OVCAR-3 was 15.8 µM (inactive); in the assay with NCI-H226 it was 17.3 µM (inactive); in the assay on HT-29, 16.7 µM (inactive); in the assay on HCT-116, 13.5 µM (inactive); in the assay on EKVX, 19.5 µM (inactive); in the assay with LOX IMVI, 11.3 µM (inactive). The GI50 is 18.1 µM (inactive) with IGROV-1, 14.1 µM (inactive) with CAKI-1 and 18.9 µM (inactive) with OVCAR-5.
With `COc1ccccc1NC(=O)C1=C(C)NC(C)=C(C(=O)Nc2ccccc2OC)C1/C=C/c1ccccc1`, the GI50 is 80.9 µM (inactive) with A549; 39.4 µM (inactive) with MOLT-4; > 100 µM (inactive) in the assay on SNB-19; > 100 µM (inactive) in the assay on M14; 50.2 µM (inactive) in the assay on K562; > 100 µM (inactive) in the assay on SK-MEL-2. Further, the GI50 was > 100 µM (inactive) with OVCAR-3; > 100 µM (inactive) with NCI-H226; > 100 µM (inactive) in the assay on HT-29; 48.3 µM (inactive) with HCT-116; 89.3 µM (inactive) with EKVX; > 100 µM (inactive) in the assay with LOX IMVI. For the same molecule, the GI50 with IGROV-1, in the assay on CAKI-1 and with OVCAR-5 was > 100 µM (inactive) each time.
`O=C1/C(=C/c2ccc(Cl)cc2)N=C(c2ccccc2)N1c1ccc(S(=O)(=O)Nc2nccs2)cc1`: the GI50 with A549 was 52.4 µM (inactive); in the assay on MOLT-4, 33.2 µM (inactive); in the assay with SNB-19, 40.7 µM (inactive); with M14, 47.5 µM (inactive); in the assay on NCI/ADR-RES, 60.5 µM (inactive); in the assay on PC-3, 31.6 µM (inactive). Moreover, the GI50 in the assay with K562 is 33 µM (inactive); in the assay on SK-MEL-2 it was 16 µM (inactive); in the assay on OVCAR-3, 30.5 µM (inactive); in the assay with NCI-H226 it was 52.1 µM (inactive); in the assay with HT-29, 21.9 µM (inactive); with HCT-116, 33.5 µM (inactive). Also, the GI50 in the assay on EKVX is 31.5 µM (inactive); in the assay on MCF7, 26.1 µM (inactive); in the assay on MDA-MB-435, 23.6 µM (inactive); in the assay with LOX IMVI it was 31.7 µM (inactive); in the assay with CAKI-1, > 100 µM (inactive); with OVCAR-5, > 100 µM (inactive).
As for `COc1ccc(S(=O)(=O)Nc2ccc(-c3csc(N4C(=O)/C(=C/c5ccccc5)N=C4c4ccccc4)n3)cc2)cc1Cl`, the GI50 is 35.1 µM (inactive) with A549; 25.1 µM (inactive) in the assay with MOLT-4; 44.2 µM (inactive) in the assay on SNB-19; 24.8 µM (inactive) in the assay with M14; 45.4 µM (inactive) in the assay with NCI/ADR-RES; 25.4 µM (inactive) in the assay with PC-3. In addition, the GI50 in the assay on K562 is 34.3 µM (inactive); in the assay with SK-MEL-2, 25.9 µM (inactive); in the assay with OVCAR-3 it was 36.2 µM (inactive); in the assay on NCI-H226, 33.2 µM (inactive); in the assay on HT-29 it was > 100 µM (inactive); with HCT-116, 35.3 µM (inactive). Besides, the GI50 was 36.8 µM (inactive) with MCF7; 27.5 µM (inactive) with MDA-MB-435; 32.5 µM (inactive) in the assay on LOX IMVI; 38.6 µM (inactive) in the assay on IGROV-1; 62.8 µM (inactive) with CAKI-1; 47.2 µM (inactive) with OVCAR-5.
Consider `CNC(=O)c1nn[nH]c1O`, for which the GI50 in the assay with A549, with MOLT-4, with SNB-19, in the assay with M14, in the assay with NCI/ADR-RES and with PC-3 was > 100 µM (inactive) each time. The GI50 in the assay with K562, with SK-MEL-2, in the assay with NCI-H226, with HT-29, with HCT-116 and in the assay on EKVX was > 100 µM (inactive) throughout. Moreover, the GI50 with MCF7, in the assay with MDA-MB-435, in the assay on LOX IMVI, in the assay on IGROV-1, in the assay on CAKI-1 and with OVCAR-5 was > 100 µM (inactive) in each case.
